Measurements reported in patent publication US5721265A, “Fluorinated 2-nitroimidazole analogs for detecting hypoxic tumor cells” (priority 1995, dated 1998).
In brackets after ≈: the same amount, converted by molar mass. Several values for one entry are separate records, joined by “and”; a condition that tells them apart may be missing. Identical values can stand only once. Entries after “also recorded” stand apart in the source; their conditions may differ. Like-named read-outs stand apart in the source and are kept apart here.

Columns and labels:
EMT-6 tumors = assay: retention in EMT-6 tumor-bearing Balb/c mice by 19F magnetic resonance spectroscopy; type: in vivo, mouse
Experimental: (§1) SR 4554 was administered as a single intraperitoneal injection of 180 mg/kg to RIF-1 tumor-bearing female C3 H/He mice and EMT-6 tumor-bearing female Balb/c mice. In some experiments, hydralazine ([…] i.v.) was administered 1 h prior to the administration of SR 4554. Magnetic resonance spectroscopy (MRS) was conducted on a 4.7 Tesla (SISCO) nuclear magnetic resonance (NMR) spectrometer using a double-tuned (^19 F/^2 H) circuit at 45 min and 6 hr post injection of SR 4554. Drug concentrations were obtained using a modification of the method of Thulborn et al. (1983) J. Magn. Reson. 55:357-371. Specifically, the ^19 F signal intensity was related to the natural abundance ^2 H signal from tissue water. Calibrations involved the use of a reference bulb containing 5-fluorotryptophan (5-FTP) and acetic acid-d (AcOH-d). Tumors were excised immediately after MRS examination and original drug levels determined by high performance liquid chromatography (HPLC), as described in Example 6.
RIF-1 and EMT-6 tumors have a low and a high radiobiological hypoxic fraction, respectively. Moulder et al. (1984), supra.

[1] = tested on: cytochrome P450 reductase; assay: reduction by purified rat cytochrome P450 reductase under hypoxia; type: in vitro ADME; conditions: 100% nitrogen
Source text: (§2) SR 4554 was reduced by mouse liver microsomes as well as purified rat and human cytochrome P450 reductase under hypoxia (100% nitrogen).

[2] = tested on: murine and human tumor xenografts; assay: retention of 19F signal in murine and human tumor xenografts by MRS; type: in vivo, mouse; human
Experimental: In addition to the above experiment, more extensive in vivo experiments have been performed. In order to assess the oxygenation status of various murine and human tumor xenografts, the retention of ^19 F signal as measured by MRS was evaluated following SR 4554 administration. The data shown in FIG. 8 represent the mean ±SD of the ratios of ^19 F retention (μmol/g) at 6 hrs relative to 45 mins. RIF1 (fibrosarcoma), EMT6 ([…]) and KHT (adenocarcinoma) are murine tumors whereas HT29 (colon carcinoma), BB (colon carcinoma), WIL (non-small cell lung carcinoma) and HN5 (squamous cell carcinoma of the head and neck) are human tumor xenografts. Importantly, the data illustrates the varying degree of retention of SR 4554 by the different tumors.

C3H-mammary tumor = assay: SR 4554 retention and oxygen electrode measurement in C3H-mammary tumor; type: in vivo, mouse
Experimental: (§3) Tumor oxygenation measurements were performed 3 hours after SR 4554 administration using a polarographic needle oxygen electrode.

log P (lipophilicity) = type: physicochemical
[3] = urinary excretion of SR 4554 in non-tumor-bearing female Balb/c mice; type: in vivo, mouse; conditions: urine
[4] = solubility in 0.9% saline solution
[5] = tested on: cytochrome P450 reductase; assay: reduction by purified human cytochrome P450 reductase under hypoxia; type: in vitro ADME; conditions: 100% nitrogen
Source text: as §2

C3H mouse mammary tumor = assay: influence of carbogen breathing on SR 4554 retention within the C3H mouse mammary tumor; type: in vivo
Source text: Table 4 presents the influence of high levels of oxygen (carbogen breathing) on SR 4554 retention within the C3H mouse mammary tumor.

SCCVII tumor = assay: SR 4554 retention and oxygen electrode measurement in SCCVII tumor; type: in vivo
Experimental: as §3

[6] = pharmacokinetics of SR 4554 in EMT-6 tumor-bearing mice (HPLC); type: in vivo, mouse
Experimental: Silver nitrate solution (25 μl; 30% w/v) was added to 250 μl of tissue samples and standards and to 20 μl of internal standard solution (12.5 μg/ml in 0.1M Tris buffer, pH 7.4). Samples were then vortexed and centrifuged (2000×g) for 5 min. The extracted samples 50 μl) were then injected into the HPLC.
(§4) The chromatographic system consisted of a WISP Model 712 autosampler (Waters Chromatography Ltd.), Model 660 gradient controller with a quaternary HPLC pump, a Model 991 photodiode array detector and a NEC Powermate SX/16 personal computer running Waters 991 photodiode array software. A reversed phase chromatographic separation was performed on a 10 μm μ Bondapak C18 (3.9×300 mm) analytical column (Millipore) at ambient temperature. Pellicular ODS (Whatman) packed in a 2×6.5 mm stainless steel column (Upchurch Scientific, Inc.) was used as a pre-column. The mobile phase was methanol/H2 O) (15:85). All solvents were filtered through a 0.45 μm Teflon PTFE/polypropylene filter membrane, de-gassed with helium and delivered isocratically at a flow rate of 2 ml/min. The column effluent was monitored by UV-photodiode array detection at 324 nm (UV range=200 to 500 nm). The peak area ratio of analyte to internal standard was used for conversion of the detector response to concentration estimates via the construction of a calibration curve.
EMT-6 tumor-bearing mice were used in this study. Mice were given a single intraperitoneal or intravenous injection (180 mg/kg body weight) or a single oral dose (p.o. 90 mg/kg) by lavage of SR 4554. Three mice were sacrificed per time point and blood obtained by cardiac puncture. The blood obtained was centrifuged to give plasma. Tumors, livers and brain were also obtained at various time points. Samples were extracted with silver nitrate and analyzed by high performance liquid chromatography (HPLC) using the procedures described in Example 4.

[7] = reductive metabolism of SR 4554 by mouse liver microsomes under hypoxia (HPLC); type: in vitro ADME
Experimental: as §4, §2
The characteristics of reductive metabolism of SR 4554 by mouse liver microsomes (0.5 mg/ml protein) are depicted in FIG. 1. Samples were removed at various time points, extracted with silver nitrate and analyzed by high performance liquid chromatography (HPLC) as described above. […] The cytochrome P450 inhibitor--carbonmonoxide--inhibited the hypoxic metabolism of SR 4554 by 15%.

[8] = toxicity of SR 4554 in female Balb/c mice; type: in vivo, mouse
Experimental: Toxicity studies of SR 4554 were done in female Balb/c mice. Mice were injected with SR 4554 i.v with 191 mg/kg ([…]) body weight or i.p. with 383 mg/kg ([…]) body weight. Control mice were injected with an equivalent volume of solvent (saline).

RIF-1 tumors = assay: retention in RIF-1 tumor-bearing C3H/He mice by 19F magnetic resonance spectroscopy (and HPLC); type: in vivo, mouse
Experimental: as §1
It is assumed that the retention of high concentrations of ^19 F at 6 hr, despite the much lower (20 fold) concentration of original drug detected by HPLC at […], represent one or more nitro-reduced metabolites.
The retention of drug signal in RIF-1 tumors is plotted as a function of tumor weight in FIG. 7. Tumor ^19 F signal levels at 6 hrs and 45 min were calculated in μmol/g tumor. The retention of ^19 F at 6 hrs relative to 45 min in the same tumors was compared to corresponding tumor weights in grams. In this tumor model (a low hypoxic fraction tumor) the relative retention (6 hrs/45 min) correlated with tumor weight (corr. coeff.=0.83).

[9] = tested on: mouse tumors (EMT-6, KHT, RIF-1); conditions: cited from earlier work; for 19F signal intensity by tumor type: EMT-6, KHT vs RIF-1; for retention in mouse tumors (19F MRS): in vivo
tumors = conditions: cited from earlier work
[10] = in vivo; cited from earlier work
[11] = cited from earlier work
[12] = literature compounds; cited from earlier work
[13] = per amount injected 3.34-3.55 mg

In the case of `O=C(Cn1ccnc1[N+](=O)[O-])NCC(O)C(F)(F)F` (racemic) [SR 4554], the “Retention (mean ± S.D.)” value (EMT-6 tumors; EMT-6, 180 mg/kg i.p., n = 12) is reported as 1.04 ± 0.66, the “retention in EMT-6 compared with RIF-1 tumors” value (EMT-6 tumors; MRS) is reported as “greater in EMT-6 tumors than in RIF-1 tumors” and the reduced under hypoxia [1] is reported as “reduced”. For the same molecule, the “retention in human tumor xenografts vs murine tumors (6 hrs relative to 45 mins)” value ([2]; HT29, BB, WIL, HN5 vs RIF1, EMT6, KHT) was “Apart from the WIL tumor, the retention of the drug in human tumor xenografts were lower than for the murine tumors”, the “trend of retention with hypoxic fraction” value ([2]; murine and human tumors) was “tumors which are known to have a greater hypoxic fraction retained more SR 4554” and the “SR 4554 Retention (mean ± SD)” value (C3H-mammary tumor) was 0.79 +/- 0.36. For the same molecule, the logP (log P (lipophilicity)) was -0.2, the dose excreted ([3]; mouse, read-out: detected as unchanged parent compound in urine) was ≤ 66% and the “Amount of Drug Excreted” value [3, 13] was 2.62 mg and 2.39 mg and 1.83 mg. The “Fraction of Dose Excreted” value [3, 13] was 73.80% and 71.56% and 52.59%, the solubility [4] was 23 mM (≈ 6.49 mg/mL) and the reduced under hypoxia [5] was “reduced”. The “Retention, air breathing” value (C3H mouse mammary tumor; Air (20% O2)) was 0.62 +/- 0.17, the “Retention, carbogen breathing” value (C3H mouse mammary tumor; Carbogen (95% O2)) was 0.11 +/- 0.05 and the “reduction in retention, carbogen vs air” value (C3H mouse mammary tumor; carbogen vs air) was “significant (P<0.01) reduction”. For the same molecule, the “SR 4554 Retention (mean ± SD)” value (SCCVII tumor) was 0.57 +/- 0.14, the “brain/plasma ratio over time” value ([6]; i.p.) was “generally remained low throughout the observation period” and the “liver/plasma ratio over time” value ([6]; i.p.) was “decreased very rapidly”. The “time of peak tumor/plasma ratio” value ([6]; i.p.) was “about 90 min”, the “liver/plasma and brain/plasma ratios at 240 min” value ([6]; i.p., 240 min) was “about the same” and the “bioavailability ratio relative to i.v., i.v.” value ([6]; i.v. 180 mg/kg) was 100%. The “detectable in plasma until” value ([6]; limit of detection=25 ng/ml, postinjection) was ≥ 6 h, the “brain levels and brain/plasma ratio” value ([6]; mice) was “generally low” and the “accumulation in the brain” value ([6]; mouse, in vivo) was “does not accumulate to any appreciable degree in the brain”. It also gave a bioavailability ([6]; mouse, in vivo, ip, i.p. 180 mg/kg, read-out: bioavailability ratio relative to i.v., i.p.) of 100%, a bioavailability ([6]; mouse, in vivo, po, p.o. 90 mg/kg, read-out: bioavailability ratio relative to i.v., p.o.) of 95.5% and a Cmax ([6]; mouse, plasma, read-out: Cmax, plasma) of 145 µg/mL. The half-life ([6]; mouse, plasma, read-out: half life, t1/2, plasma) was 50.8 ± 1.6 min, the Tmax ([6]; mouse, plasma, read-out: tmax, plasma (converted)) was 30 min and the concentration at 6 h ([6]; mouse, tissue, limit of detection, 6 hours, read-out: tissue levels of drug at 6 hours) was < 100 ng/g. For the same molecule, the Cmax ([6]; mouse, tumor, read-out: Cmax, tumor) was 52000 ng/g, the half-life ([6]; mouse, tumor, read-out: half life, t1/2, tumor) was 51.5 ± 4.4 min and the Tmax ([6]; mouse, tumor, read-out: tmax, tumor (converted)) was 45 min. The “inhibition of reduction by cytochrome P450 reductase inhibitor” value ([7]; TlCl3.4H2O, 0.2 mg/ml) was “completely inhibited”, the “inhibition of reduction by air” value ([7]; in air) was “completely inhibited” and the “Vmax of microsomal metabolism” value ([7]; mouse liver microsomes) was 16.84 nmol/min/mg. The “other nitro-containing species upon metabolism” value ([7]; mouse liver microsomes 0.5 mg/ml protein) was “No other nitro-containing species were observed”, the reduced under hypoxia ([7]; mouse liver microsomes, 100% nitrogen) was “reduced; also recorded: metabolized under hypoxic conditions” and the Km ([7]; mouse liver microsomes, read-out: Km of microsomal metabolism) was 0.65 mM. The “inhibition of reduction in the absence of cofactor (NADPH)” value ([7]; without NADPH) was “completely inhibited”, the “behavioral changes or deaths” value ([8]; i.v. 191 mg/kg or i.p. 383 mg/kg) was “no behavioral changes or deaths were observed” and the “bodyweight changes between treated and control mice” value ([8]; mouse, in vivo) was “No differences were observed”. The “Retention (mean ± S.D.), + hydralazine” value (RIF-1 tumors; RIF-1 + hydralazine 1 h prior, n = 6) was 1.27 ± 0.50, the “Retention (mean ± S.D.)” value (RIF-1 tumors; RIF-1, 180 mg/kg i.p., n = 13, tumor weight 0.5 to 2.7 g) was 0.53 ± 0.27 and the “clearance from the brain and retention in tumors” value (RIF-1 tumors; RIF-1 mice) was “rapidly cleared from the brain but selectively retained in tumors”. For the same molecule, the “tumor drug level, 7 hrs (HPLC)” value (RIF-1 tumors; RIF-1 tumor, original drug, 7 hrs, HPLC) was 0.009 μmol/g tissue and 0.008 μmol/g tissue and 0.007 μmol/g tissue, the “concentration of original drug (HPLC, 7 hrs) lower than 19F (MRS, 6 hr)” value (RIF-1 tumors; RIF-1 tumors) was 20 fold and the “increase in retention on hydralazine pre-treatment” value (RIF-1 tumors; hydralazine 1 h prior) was “two-fold increase”.

In the case of `O=[N+]([O-])c1nccn1CC(O)COC(C(F)(F)F)C(F)(F)F` (stereo not shown) [CCI-103F, hexafluoromisonidazole], the “19F signal intensity by tumor type” value [9] is listed as “higher in EMT-6 and KHT than RIF-1 tumors”, the “retention in mouse tumors (19F MRS)” value [9] is listed as “selectively retained in mouse tumors” and the “staining for bound drug in tumors” value (tumors; immunohistochemistry) is listed as “some staining for bound drug at the periphery of necrotic zones”. The “19F tumor signal detectable after twenty-four hours” value (tumors; intraperitoneal, 24 hours) was 4 of 10, the neurotoxic side effects [10] was “neurotoxic side effects” and the octanol/water partition coefficient [11] was 20.

For `O=C(Cn1ccnc1[N+](=O)[O-])NCCO` [Etanidazole], the “neurotoxicity relative to Misonidazole” value [10] is given as “less neurotoxic than Misonidazole”, the solubility [4] is given as 551 mM (≈ 118 mg/mL) and the “log P” value [12] is given as -1.28.

For `COCC(O)Cn1ccnc1[N+](=O)[O-]` (stereo not shown) [Misonidazole], the “log P” value [12] is listed as -0.32.

For `O=[N+]([O-])c1nccn1CC(O)CF` (stereo not shown) [Ro 07-0741], the “19F signal intensity by tumor type” value [9] is listed as “higher in EMT-6 and KHT than RIF-1 tumors”, the “retention in mouse tumors (19F MRS)” value [9] is listed as “selectively retained in mouse tumors” and the neurotoxic side effects [10] is listed as “neurotoxic side effects”. The octanol/water partition coefficient [11] was 0.41.

For `O=C(Cn1ccnc1[N+](=O)[O-])N(CCO)CC(O)C(F)(F)F` (stereo not shown) [SR 4557, N-(2-hydroxyethyl)-N-(2-hydroxy-3,3,3-trifluoropropyl)-2-(2-nitro 1H-imidazol-1-yl)acetamide], the logP (log P (lipophilicity)) was -0.36 and the solubility [4] was 628 mM (≈ 205 mg/mL).
